# Measurements published in patent US4315938A, “4-Phenyl-4,5,6,7-tetrahydro-pyrrolo [2,3-c] pyridines and salts thereof” (Boehringer Ingelheim Gmbh, priority 1979, dated 1982).
# Read-outs that look alike come from different tables or passages of the source.
# Assays:
# [1] = test system: hypothermic effect caused by reserpine; assay: Reserpine antagonism (elimination of the hypothermic effect caused by reserpine); format: in vivo; settings: Mus musculus, mice, oral, 17 h after 2 mg/kg i.p. reserpine
# Description: A further test for determining anti-depressive activity is based on reserpine-antagonism, that is, the elimination of the hypothermic effect caused by reserpine. The test is carried out in mice, 5 animals being used per dosage test. Seventeen hours after i.p. administration of 2 mg/kg of reserpine, the body temperature is measured peripherally while at a room temperature of 19° C. Afterwards, the test substance is administered orally, and the body temperature is measured after 1, 3, 5 and 7 hours. For each measured period a mean effective dose (ED50) is determined. This is the dosage at which the body temperature of the animals treated with reserpine approaches the normal temperature of untreated controls by 50%.
# [2] = test system: uptake of serotonin by the neurons (synaptosomes); assay: Inhibition of serotonin uptake by synaptosomes of homogenized cerebrum; format: biochemical; settings: rat cerebrum synaptosomes, 10 minutes at 37° C.; read-out: Serotonin inhibition IC 50
# Description: (§1) It is now believed that various forms of depression cause a deficiency of certain physiologically important amines, particularly noradrenaline and serotonin, in certain parts of the brain, and that the amount of such amines may be increased by inhibiting their uptake by neurons.
# (§2) The test is performed on the homogenized, isolated cerebrum of the rat. A suspension of synaptosomes thus obtained is incubated with […] noradrenaline and/or serotonin and various concentrations of a solution of the test substance in water for 10 minutes at 37° C. When the incubation is finished, the medium is separated by filtering, and the radioactivity of the suspension of synaptosomes is measured.
# (§3) A control test in the absence of the test substance is simultaneously carried out in order to determine the quantity of radioactive amines taken up. The quantity of the test substance in mols which is required to inhibit 50% of the uptake is designated the IC 50.
# [3] = test system: uptake of noradrenaline by the neurons (synaptosomes); assay: Inhibition of noradrenaline uptake by synaptosomes of homogenized cerebrum; format: biochemical; settings: rat cerebrum synaptosomes, 10 minutes at 37° C.; read-out: Noradrenaline inhibition IC 50
# Description: as §1, §2, §3
# [4] = 1 hour, read-out: Reserpine antagonism after 1 hour (ED50)
# [5] = 3 hours, read-out: Reserpine antagonism after 3 hours (ED50)
# [6] = 5 hours, read-out: Reserpine antagonism after 5 hours (ED50)
# [7] = 7 hours, read-out: Reserpine antagonism after 7 hours (ED50)
Structure (SMILES),"ED50 [1, 4] [mg/kg]","ED50 [1, 5] [mg/kg]","ED50 [1, 6] [mg/kg]","ED50 [1, 7] [mg/kg]",IC50 [2] [nM],IC50 [3] [nM]
"Cn1ccc2c1CNCC2c1ccc(Br)cc1.O=C(O)/C=C\C(=O)O (stereo not drawn) [1-methyl-4-(p-bromophenyl)-4,5,6,7-tetrahydro-pyrrolo-[2,3-c]pyridine maleate]",36,10,30,40,530,6900
"CN1Cc2c(cc(Br)n2C)C(c2ccc(Br)cc2)C1 (stereo not drawn) [1,6-dimethyl-2-bromo-4-(p-bromophenyl)-4,5,6,7-tetrahydro-pyrrolo[2,3-c]-pyridine]",> 40,14,< 10,10,440,1800
"Cc1ccc(C2CN(C)Cc3c2ccn3C)cc1.Cl (stereo not drawn) [1,6-dimethyl-4-(p-tolyl)-4,5,6,7-tetrahydro-pyrrolo-[2,3-c]pyridine hydrochloride]",> 40,< 10,16,< 10,40,4900
"CN1Cc2c(ccn2C)C(c2ccc(F)cc2)C1.Cl (stereo not drawn) [1,6-dimethyl-4-(p-fluorophenyl)-4,5,6,7-tetrahydro-pyrrolo-[2,3-c]pyridine hydrochloride]",< 10,< 10,< 10,< 10,180,6700
"CN1Cc2c(cc(CN3CCCC3)n2C)C(c2ccc(Br)cc2)C1 (stereo not drawn) [1,6-dimethyl-2-pyrrolidino-methyl-4-(p-bromophenyl)-4,5,6,7-tetrahydro-pyrrolo-[2,3-c]pyridine dimaleate]",> 40,< 10,10,< 10,,
"CCN1Cc2c(ccn2C)C(c2ccc(C)cc2)C1.Cl (stereo not drawn) [1-methyl-4-(p-tolyl)-6-ethyl-4,5,6,7-tetrahydro-pyrrolo-[2,3-c]pyridine hydrochloride]",> 40,< 10,10,> 40,20,600
"CN1Cc2c(cc(CN3CCCCC3)n2C)C(c2ccc(Br)cc2)C1 (stereo not drawn) [1,6-dimethyl-2-piperidino-methyl-4-(p-bromophenyl)-4,5,6,7-tetrahydro-pyrrolo-[2,3-c]pyridine dimaleate]",> 40,40,40,> 40,,
"CN1Cc2c(cc(CN3CCOCC3)n2C)C(c2ccccc2)C1 (stereo not drawn) [1,6-Dimethyl-2-morpholinomethyl-4-phenyl-4,5,6,7-tetrahydropyrrolo[2,3-c]pyridine]",> 40,16,10,< 40,1600,6600
"CN(CCO)Cc1cc2c(n1C)CN(C)CC2c1ccc(Br)cc1 (stereo not drawn) [1,6-dimethyl-2-N-methyl-N-β-hydroxyethyl-aminomethyl-4-(p-bromophenyl)-4,5,6,7-tetrahydro-pyrrolo[2,3-c]-pyridine dimaleate]",10,< 10,13,10,380,1300
"CN1Cc2c(ccn2C)C(c2ccc(Br)cc2)C1 (stereo not drawn) [1,6-Dimethyl-4-(p-bromophenyl)-4,5,6,7-tetrahydro-pyrrolo[2,3-c]pyridine]",20,6,40,40,90,1250
"CN1Cc2c(cc(CN3CCCCCC3)n2C)C(c2ccc(Br)cc2)C1 (stereo not drawn) [1,6-dimethyl-2-hexahydro-azepine-1-yl-methyl-4-(p-bromophenyl)-4,5,6,7-tetrahydro-pyrrolo[2,3-c]-pyridine dimaleate]",< 10,< 10,20,> 40,,
"CN1Cc2c(ccn2C)C(c2ccc(Cl)cc2)C1.Cl (stereo not drawn) [1,6-dimethyl-4-(p-chlorophenyl)-4,5,6,7-tetrahydro-pyrrolo-[2,3-c]pyridine hydrochloride]",< 10,< 10,< 10,< 10,40,1500
